Legend:
[1] = HPLC lipophilicity on cholesterol (Chol) stationary phase; format: physicochemical; settings: pH 7.4; for Log k Chol: Table S3
Outline: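 Cholesterol-bonded column run isocratically with MeOH/20 mM acetate buffer at pH 7.4, MeOH fraction 0.3–0.8 (v/v), 0.35 mL/min, room temperature, UV 280 nm. t0 from citric acid; log kw (intercept) and slope S from Soczewiński–Wachtmeister regression of log k against modifier content.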

[2] = molecular target: T1, human serum albumin (HSA) (Homo sapiens, UniProt P02768); experiment: HPLC on immobilized HSA column, affinity and % plasma–protein binding; format: in vitro ADME
T1 construct: purchased Chiralpac
T1 sequence (P02768 25-609): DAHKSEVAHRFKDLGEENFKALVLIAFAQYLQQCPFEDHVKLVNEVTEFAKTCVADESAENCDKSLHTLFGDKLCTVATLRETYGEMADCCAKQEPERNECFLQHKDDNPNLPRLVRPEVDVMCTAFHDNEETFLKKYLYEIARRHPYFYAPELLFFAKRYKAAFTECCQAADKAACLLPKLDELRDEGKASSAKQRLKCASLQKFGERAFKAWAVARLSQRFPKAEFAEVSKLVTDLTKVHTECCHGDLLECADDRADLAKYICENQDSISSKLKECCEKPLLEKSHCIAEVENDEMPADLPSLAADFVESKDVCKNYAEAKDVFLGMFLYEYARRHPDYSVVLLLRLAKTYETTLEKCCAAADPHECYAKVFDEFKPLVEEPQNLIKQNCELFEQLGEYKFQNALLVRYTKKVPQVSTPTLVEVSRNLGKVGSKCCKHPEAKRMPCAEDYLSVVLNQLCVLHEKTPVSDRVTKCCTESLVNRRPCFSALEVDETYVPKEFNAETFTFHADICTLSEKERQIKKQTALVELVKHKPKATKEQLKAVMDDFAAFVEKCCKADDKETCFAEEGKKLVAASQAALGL
Outline: (§1)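 Retention (log k) on immobilized-protein HPLC columns, 50 mM ammonium acetate pH 7.4 with propan-2-ol (85/15 for AGP), UV 280 nm, room temperature. log K read from drug calibration curves, then converted to %PPB.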

[3] = design: method as in Kozyra et al. [31]; settings: MeOH/20 mM acetate buffer, pH 7.4, ref Kozyra et al. [31], cited from earlier work
[4] = HPLC lipophilicity on IAM (immobilized artificial membrane, phosphatidylcholine) stationary phase; format: physicochemical; settings: pH 7.4; for Log k IAM: Table S2
Outline: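 Rexchrom IAM.PC.DD2 column with ACN/20 mM phosphate buffer pH 7.4 (0.15 M KCl), ACN fraction 0.05–0.4 v/v at 0.05 steps, 1 mL/min, UV 280 nm, room temperature; t0 from citric acid. log kw and slope S extrapolated via Soczewiński–Wachtmeister equation.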

[5] = system: α1-acid glycoprotein (AGP); experiment: HPLC on immobilized AGP column, affinity and % plasma–protein binding; format: in vitro ADME, human
Outline: as §1

## O=C(COc1ccccc1)NNC(=S)Nc1cccc2ccccc12 [Compound 18]
[1]; MeOH 0.30 v/v in mobile phase
  Log k Chol: 1.494
[1]; MeOH 0.35 v/v in mobile phase
  Log k Chol: 1.296
[1]; MeOH 0.40 v/v in mobile phase
  Log k Chol: 1.025
[1]; MeOH 0.45 v/v in mobile phase
  Log k Chol: 0.758
[1]; MeOH 0.50 v/v in mobile phase
  Log k Chol: 0.405
[1]; MeOH 0.60 v/v in mobile phase
  Log k Chol: 0.062
[1]; MeOH 0.80 v/v in mobile phase
  Log k Chol: -1.016
[1]; intercept, linear extrapolation to water, MeOH/20 mM acetate buffer
  log kw Chol: 3.0227
[1]; slope of Soczewiński–Wachtmeister equation, MeOH/20 mM acetate buffer
  -S Chol: 5.0400
[2]; binding equilibrium constant from calibration curve (Equation 8) of log k HSA
  log K HSA: 1.5246
[2]; human, pH 7.4, % plasma–protein binding converted from log K HSA (Equation 10), read-out: %PPB HSA (converted)
  fraction unbound: 0.019
[2]; retention on HSA column, 50 mM ammonium acetate pH 7.4 / propan-2-ol 85/15 (v/v)
  log k HSA: 1.2098
[3]; intercept of Soczewiński–Wachtmeister equation (water as mobile phase)
  log kw C-18: 2.6769
[3]; slope of Soczewiński–Wachtmeister equation
  -S C-18: 4.6919
[4]; ACN 0.10 v/v in mobile phase
  Log k IAM: 1.105
[4]; ACN 0.15 v/v in mobile phase
  Log k IAM: 0.809
[4]; ACN 0.20 v/v in mobile phase
  Log k IAM: 0.533
[4]; ACN 0.25 v/v in mobile phase
  Log k IAM: 0.278
[4]; ACN 0.30 v/v in mobile phase
  Log k IAM: -0.130
[4]; ACN 0.35 v/v in mobile phase
  Log k IAM: -0.258
[4]; intercept, linear extrapolation to water, ACN/20 mM phosphate buffer
  log kw IAM: 1.6606
[4]; slope of Soczewiński–Wachtmeister equation, ACN/20 mM phosphate buffer
  -S IAM: 5.6500
[5]; binding equilibrium constant from calibration curve (Equation 9) of log k AGP
  log K AGP: 0.7514
[5]; human, pH 7.4, % plasma–protein binding converted from log K AGP (Equation 10), read-out: %PPB AGP (converted)
  fraction unbound: 0.142
[5]; retention on AGP column, 50 mM ammonium acetate pH 7.4 / propan-2-ol 85/15 (v/v)
  log k AGP: 0.6494

Reference: paper PMC10608985, “Retention Behavior of Anticancer Thiosemicarbazides in Biomimetic Chromatographic Systems and In Silico Calculations” (Molecules, 2023)
